One data set deals with G93A-SOD1 expression. The data set is described as follows: SOD1 protein expression in cultured fibroblasts from G93A-SOD1 mice (ELISA). The settings on record: for Effect on SOD1 expression (in words) / IC50 / Shape of dose-response curve for SOD1 expression: G93A-SOD1 mouse fibroblasts; for IC50 / activity at 10 µM: Fibroblast; for activity at 10 µM: Mus musculus, 48 h, 10 μM compound. The format is cell-based, mouse. (In general: An ELISA detects its analyte on a solid surface through an enzyme-linked reagent.)

The subject of a further data set is CDK5, CDK2, CDK1, CDK4. The settings on record: cited from earlier work.
A short description of data set [1]: Distribution in tissues of nontransgenic mice after injection. The settings on record: cyclodextrin carrier; for concentration at 2 h / concentration at 4 h / concentration at 24 h: mouse, other: injection, 10 mg/kg injection. Type of data set: in vivo, mouse. The method, then: The blood brain barrier permeability of GSK3B-II was determined in nontransgenic mice. […] The peak and sustained concentrations found in the spinal cord and brain indicate that the 20 mg/kg dose puts the drug into the inhibitory range found in the cellular assays.
(§1) We also tested compound NUCC-434 for distribution in non-transgenic mice. […] While there are a multitude of methods for improving aqueous solubility of drugs (32) we chose a relatively simple route using a cyclodextrin based carrier (Sulfo-butylether beta-cyclodextrin, Captisol) to solubilize the drug in aqueous solution. Using the cyclodextrin carrier, we were able to solubilize NUCC-434 to 2 mg/mL in water and deliver 10 mg/kg to nontransgenic mice for pharmacokinetics. […] However, the distribution dynamics are different in the presence of the cyclodextrin which appears to slow uptake into the CNS as the peak drug concentration was delayed (Table 4). Such changes in distribution dynamics using cyclodextrins have not been studied in detail.

Data set [2] is described as follows: Solubility in dosing vehicle. Type of data set: physicochemical. Here is the method: as §1
The subject of a further data set is cell toxicity. The following applies: cited from earlier work.
The mark [3] stands for this setting: Table 2, relative to control, read-out: Relative SOD1 expression 10 μM compound.
Setting [4] is: Table 5, read-out: Relative SOD1 Expression in Presence of Compound (10 μM).
Setting [5] is: spinal cord, read-out: Spinal Cord.

In brackets after ≈: the same amount, converted by molar mass. Like-named read-outs stand apart in the source and are kept apart here.

Protocol for G93A-SOD1 expression: Fibroblasts were treated with the title compounds at the indicated concentration for 48 hr. Cells were washed, lysed, and SOD1 levels measured by ELISA. SOD1 levels are normalized to the total protein in the lysate.
Thus, we used cultured fibroblasts from the G93A-SOD1 transgenic mouse to screen GSK3β protein kinase inhibitors (FIG. 1) for their effects on SOD1 expression. The transgene construct contains the human SOD1 promoter so that cellular signaling processes that affect transcription of the gene will be fully functional. We chose a structurally diverse group of compounds including some natural products.

On to `CCCCc1c(-c2ccc(O)cc2)[nH]c2nccnc12` [Aloisine, Aloisine A, reference compound], for which the “Effect on SOD1 expression (in words)” value is reported as “increased SOD1 expression” in the data set with G93A-SOD1 expression and “Increases SOD1” in the data set on G93A-SOD1 expression (48 hr treatment). Besides, the “Comments: other kinases inhibited” value in the data set on CDK5, CDK2, CDK1, CDK4 was “Also inhibits CDK5,”.

In the case of `O=C1Nc2cc(Br)ccc2/C1=C1/Nc2ccccc2/C1=N\O` [GSK3B-IX, reference compound], the “Effect on SOD1 expression (in words)” value in the data set on G93A-SOD1 expression is reported as “increased SOD1 expression”.

For `O=C1Cc2c([nH]c3ccc(Br)cc23)-c2ccccc2N1` [Kenpaullone, reference compound], half-maximal inhibition in the data set on G93A-SOD1 expression (48 hr treatment) (IC50) was put at 10 µM. Moreover, the “Effect on SOD1 expression (in words)” value in the data set on G93A-SOD1 expression was “only weakly decreased SOD1 expression”. Moreover, in the data set on CDK5, CDK2, CDK1, CDK4, the “Comments: other kinases inhibited” value is “Also inhibits CDK5,”.

As for `Brc1cccc(CSc2nnc(-c3ccncc3)o2)c1` [NUCC-318], the activity at 10 µM in the data set with G93A-SOD1 expression (setting [3]) was 91%; in the data set on G93A-SOD1 expression (setting [4]), 90.3%.

Consider `Fc1cccc(CSc2nnc(-c3ccncc3)o2)c1` [NUCC-319], for which the “Effect on SOD1 expression (in words)” value in the data set on G93A-SOD1 expression is on record as “significant increase in SOD1 expression”. Also, the activity at 10 µM in the data set with G93A-SOD1 expression (setting [3]) stood at 143%; in the data set with G93A-SOD1 expression (setting [4]), 144%.

With `Brc1ccc(CSc2nnc(-c3ccncc3)o2)cc1` [NUCC-320], the “Effect on SOD1 expression (in words)” value in the data set on G93A-SOD1 expression is given as “no effect on SOD1 expression”. For the same compound, the activity at 10 µM in the data set with G93A-SOD1 expression (setting [3]) and with G93A-SOD1 expression (setting [4]) was 103% in each case.

Turning to `Ic1ccc(CSc2nnc(-c3ccncc3)o2)cc1` [NUCC-321], the activity at 10 µM was found to be 69% in the data set with G93A-SOD1 expression (setting [3]) and 70.2% with G93A-SOD1 expression (setting [4]).

As for `Brc1ccc(CSc2nnc(-c3cccnc3)o2)cc1` [NUCC-322], the “SOD1 expression, % of control” value in the data set with G93A-SOD1 expression (10 μM) was 68.6 % of control. The activity at 10 µM in the data set on G93A-SOD1 expression (setting [4]) was determined as 68.6%.

On to `Cn1c(SCc2ccc(Br)cc2)nnc1-c1ccncc1` [NUCC-0000323], for which, in the data set on G93A-SOD1 expression (setting [4]), the activity at 10 µM was 103%.

Consider `Fc1ccc(CSc2nnc(-c3ccncc3)o2)cc1` [NUCC-324], for which the activity at 10 µM with G93A-SOD1 expression (setting [3]) was 86%; with G93A-SOD1 expression (setting [4]), 86.3%.

As for `CSc1nnc(-c2ccncc2-c2ccc(F)cc2)o1` [NUCC-0000404], the activity at 10 µM in the data set on G93A-SOD1 expression (setting [4]) stood at 94.9%.

As to `Cc1cc(-c2nnc(SCc3ccc(F)cc3)o2)ccn1` [NUCC-0000405], the activity at 10 µM in the data set on G93A-SOD1 expression (setting [4]) came out at 95%.

Consider `O=c1c(C2=NC3C=CC=CC3N2)coc2ccc(Cl)cc12` (centres unmarked) [NUCC-0000406], for which the activity at 10 µM with G93A-SOD1 expression (setting [4]) was determined as 89.9%.

`N#Cc1ccc(-c2ccc(CSc3nnc(-c4ccc5c(c4)OCO5)o3)cc2)cc1` [NUCC-0000418]: the activity at 10 µM with G93A-SOD1 expression (setting [4]) is 114%.

Take `O=[N+]([O-])c1ccccc1CSc1nnc(-c2ccncc2)o1` [NUCC-0000430]: in the data set on G93A-SOD1 expression (setting [4]), the activity at 10 µM is 101%.

Regarding `O=[N+]([O-])c1ccc(CSc2nnc(-c3ccncc3)o2)cc1` [NUCC-431], the activity at 10 µM with G93A-SOD1 expression (setting [3]) and in the data set on G93A-SOD1 expression (setting [4]) was 102% throughout.

For the compound `O=[N+]([O-])c1cccc(CSc2nnc(-c3ccncc3)o2)c1` [NUCC-432], the “Effect on SOD1 expression (in words)” value in the data set with G93A-SOD1 expression was “tended to cause an increase in SOD1 expression”. Moreover, the activity at 10 µM with G93A-SOD1 expression (setting [3]) and in the data set on G93A-SOD1 expression (setting [4]) was 117% throughout.

For the compound `COc1cccc(CSc2nnc(-c3ccncc3)o2)c1` [NUCC-433], in the data set with G93A-SOD1 expression, the “Effect on SOD1 expression (in words)” value is listed as “dose dependent reduction of SOD1 expression in vitro” and the “Shape of dose-response curve for SOD1 expression” value is “flattened rather than upward curvature at higher concentration”. In addition, the activity at 10 µM in the data set on G93A-SOD1 expression (setting [3]) is 50%. Also, the activity at 10 µM with G93A-SOD1 expression (setting [4]) was 49.9%.

Consider `COc1ccc(CSc2nnc(-c3ccncc3)o2)cc1` [NUCC-434], for which, in the data set with G93A-SOD1 expression, the “Effect on SOD1 expression (in words)” value was “dose dependent reduction of SOD1 expression in vitro” and the “Shape of dose-response curve for SOD1 expression” value is given as “flattened rather than upward curvature at higher concentration”. Further, the activity at 10 µM in the data set on G93A-SOD1 expression (setting [3]) was 47%. The activity at 10 µM in the data set with G93A-SOD1 expression (setting [4]) worked out at 47.4%. The “CNS distribution and persistence (in words)” value in data set [1] (10 mg/kg, nontransgenic mice) is “entered the CNS and persisted for 24 hr in the spinal cord”. Also, in data set [1] (brain, read-out: Brain), the concentration at 2 h was found to be 29 nM and the concentration at 4 h is 47 nM. For the same compound, in data set [1] (serum, read-out: Serum), the concentration at 2 h was determined as 153 nM, the concentration at 4 h amounted to 334 nM and the concentration at 24 h was 123 nM. In addition, in data set [1] (setting [5]), the concentration at 2 h stood at 57 nM, the concentration at 4 h amounted to 162 nM and the concentration at 24 h was found to be 113 nM. Also, the “Solubility in standard 1-2% DMSO vehicle” value in data set [2] (1-2% DMSO vehicle) was “poor”. Further, in data set [2] (aqueous with cosolvent or surfactant or cyclodextrin, Sulfo-butylether beta-cyclodextrin (Captisol) in water, read-out: Solubility in water with cyclodextrin carrier), the solubility (as a rule, how much of the substance goes into solution per volume) was found to be 2000 µg/mL (≈ 6.68 mM).

With `FC(F)(F)c1ccc(CSc2nnc(-c3ccncc3)o2)cc1` [NUCC-435], the “Effect on SOD1 expression (in words)” value in the data set on G93A-SOD1 expression is recorded as “significant increase in SOD1 expression”. Moreover, the activity at 10 µM in the data set with G93A-SOD1 expression (setting [3]) is 157%; with G93A-SOD1 expression (setting [4]) it was 158%.

As to `Cc1ccc(CSc2nnc(-c3ccncc3)o2)cc1` [NUCC-436], the activity at 10 µM in the data set with G93A-SOD1 expression (setting [3]) and in the data set with G93A-SOD1 expression (setting [4]) was 126% each time.

Consider `c1cc(CSc2nnc(-c3ccncc3)o2)ccn1` [NUCC-437], for which, in the data set on G93A-SOD1 expression, the “Effect on SOD1 expression (in words)” value is recorded as “not significantly different from control”. The activity at 10 µM in the data set on G93A-SOD1 expression (setting [4]) stood at 90.3%.

`c1cncc(CSc2nnc(-c3ccncc3)o2)c1` [NUCC-438]: in the data set with G93A-SOD1 expression, the “Effect on SOD1 expression (in words)” value was “not significantly different from control”. The activity at 10 µM with G93A-SOD1 expression (setting [4]) amounted to 112%.

For the compound `Clc1cccc(CSc2nnc(-c3ccncc3)o2)c1` [NUCC-439], the activity at 10 µM with G93A-SOD1 expression (setting [3]) is 96%; in the data set with G93A-SOD1 expression (setting [4]), 95.9%.

Regarding `Clc1ccc(CSc2nnc(-c3ccncc3)o2)cc1` [NUCC-440], the “Effect on SOD1 expression (in words)” value in the data set with G93A-SOD1 expression is “tended to cause an increase in SOD1 expression”. The activity at 10 µM in the data set with G93A-SOD1 expression (setting [3]) and in the data set on G93A-SOD1 expression (setting [4]) was 123% in each case.

`c1ccc(CSc2nnc(-c3ccncc3)o2)cc1` [NUCC-441]: the “Effect on SOD1 expression (in words)” value in the data set with G93A-SOD1 expression was “activates expression of SOD1”. Further, the activity at 10 µM in the data set on G93A-SOD1 expression (setting [3]) and in the data set with G93A-SOD1 expression (setting [4]) was 133% throughout.

As to `CSc1nnc(-c2ccnc(Nc3ccccc3)c2)o1` [NUCC-0000471], the activity at 10 µM in the data set with G93A-SOD1 expression (setting [4]) was 106%.

In the case of `CSc1nnc(-c2ccnc(NCc3ccccc3)c2)o1` [NUCC-0000472], the activity at 10 µM in the data set on G93A-SOD1 expression (setting [4]) was found to be 146%.

On to `CSc1nnc(-c2ccnc(NC3CCOCC3)c2)o1` [NUCC-0000473], for which, in the data set with G93A-SOD1 expression (setting [4]), the activity at 10 µM came out at 127%.

Regarding `Cn1cc(C2=C(c3ccc(Cl)cc3Cl)C(=O)NC2=O)c2ccccc21` [SB216763, reference compound], the half-inhibitory concentration (IC50) – broadly, the midpoint of a concentration-inhibition curve – with G93A-SOD1 expression (48 hr treatment) was 3 µM. For the same compound, in the data set with G93A-SOD1 expression, the “Effect on SOD1 expression (in words)” value is “not more effective at decreasing SOD1 expression in vitro”.

As for `CCc1nc(N)nc(N)c1-c1ccc(Cl)cc1` [pyrimethamine], the “Cell toxicity in vitro” value in the data set on cell toxicity is listed as “cell toxicity in the effective dose range”.

The record behind these values is patent US9669014B2, “Small molecule inhibitors of superoxide dismutase expression” (Northwestern University, priority 2014, dated 2017).
